Test results published in PubChem BioAssay (NCI).
Values joined by “and” are separate entries in the source; they are usually repeats but may differ in a detail not shown here. Equal entries are not always repeated.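 Assay format: 96-well plates, 48-hour exposure. Here, GI50 denotes the concentration required for 50% inhibition of growth. TGI marks complete inhibition of growth.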

Tests used:
Experiment in all cases: NCI tumour cell line growth inhibition, 48 h
HT29 colon = tested on: HT29 colon
HOP-92 NSCLC = tested on: HOP-92 NSCLC
SK-OV-3 ovarian = tested on: SK-OV-3 ovarian
TK-10 renal = tested on: TK-10 renal
UACC-257 melanoma = tested on: UACC-257 melanoma
UO-31 renal = tested on: UO-31 renal
MOLT-4 leukemia = tested on: MOLT-4 leukemia
NCI-H226 lung = tested on: NCI-H226 lung

SMILES	GI50 (HT29 colon)	TGI (HT29 colon)	GI50 (HOP-92 NSCLC)	TGI (HOP-92 NSCLC)	GI50 (SK-OV-3 ovarian)	TGI (SK-OV-3 ovarian)	GI50 (TK-10 renal)	TGI (TK-10 renal)	GI50 (UACC-257 melanoma)	TGI (UACC-257 melanoma)	GI50 (UO-31 renal)	TGI (UO-31 renal)	GI50 (MOLT-4 leukemia)	TGI (MOLT-4 leukemia)	GI50 (NCI-H226 lung) [µM]	TGI (NCI-H226 lung) [µM]
O=C(/C(=C/c1ccc([N+](=O)[O-])cc1)c1ccccc1)c1ccccc1	3.33 µM	> 100 µM	2.22 µM	6.98 µM	4.19 µM	> 100 µM	3.43 µM	> 100 µM	–	–	–	–	–	–	–	–
O=c1[nH]c2ccccc2nc1-c1c[nH]c2ccccc12	> 100 µM	> 100 µM	–	–	> 100 µM	> 100 µM	> 100 µM	> 100 µM	> 100 µM	> 100 µM	0.725 µM	> 100 µM	> 100 µM	> 100 µM	–	–
C[C@]12CC[C@H]3[C@@H](CCC4=CC(=O)CC[C@@H]43)[C@@H]1CC[C@@H]2OC(=O)CCc1ccccc1	18.2 µM	56.5 µM	20.1 µM	64.4 µM	44.1 µM	> 100 µM	14.5 µM	33.7 µM	24.6 µM	59.5 µM	18.6 µM	39.2 µM	17.5 µM	49.6 µM	16.5	34
CCN(C(=O)N1CCN(c2cc3c(cc2F)c(=O)c(C(=O)O)cn3C2CC2)CC1)c1nc(-c2ccc(C)cc2)cs1	0.332 µM	> 100 µM	0.708 µM	2.8 µM	1.53 µM	19.4 µM	2.7 µM	> 33.3 µM	–	–	0.322 µM	> 100 µM	0.469 µM	> 100 µM	–	–
CC1=C(CCC(C)N(C)Cc2ccc(OCCCN3CCCC3)cc2)C(C)(C)CCC1 (configuration not stated)	0.764 µM	6.94 µM	2.83 µM	13.1 µM	11.4 µM	23.8 µM	12.5 µM	26.7 µM	2.25 µM	4.12 µM	3.2 µM	13.3 µM	–	–	18.8	37.3
O=C(/C(=C/c1ccccc1)CN1CCCCC1)c1ccccc1	0.518 µM	1.27 µM	2.68 µM	6.74 µM	2.75 µM	7.69 µM	0.662 µM	1.74 µM	1.25 µM	3.35 µM	0.996 µM	2.3 µM	0.403 µM	31.8 µM	1.53	3.82
CCCn1c(C)nc2c1C(=O)c1ccccc1C2=O	25.8 µM	71.6 µM	> 100 µM	> 100 µM	86.2 µM	> 100 µM	65.2 µM	> 100 µM	16.5 µM	49 µM	9.06 µM	60.8 µM	19 µM	> 100 µM	57.3	> 100
COC(=O)C(Cc1ccccc1)NC(=O)NC(=O)NC(=O)CI (configuration not stated)	14.2 µM	49.9 µM	2.51 µM	5.51 µM	15.8 µM	29.4 µM	4.12 µM	14.7 µM	13.2 µM	26.5 µM	1.83 µM	3.44 µM	2 µM	5.21 µM	11.1	39.3
CN(C)c1ccc2c(c1)Sc1cc(N(C)C)ccc1N2C(=O)c1ccccc1	–	–	5.04 µM	89.9 µM	54.8 µM	> 100 µM	–	–	> 100 µM	> 100 µM	8.23 µM	> 100 µM	38.1 µM	> 100 µM	71.6	> 100
O=C(c1ccccc1)C(CN1CCOCC1)c1ccccc1 (configuration not stated)	0.501 µM	1.89 µM	1.33 µM	2.87 µM	5.18 µM	17.9 µM	1.19 µM	2.44 µM	1.37 µM	3.13 µM	1.41 µM	3.02 µM	2.24 µM	6.43 µM	2.79	9.33
Cc1ccc(C(=O)Nc2ccc(CN3CCN(C)CC3)c(C(F)(F)F)c2)cc1C#Cc1cnc2cccnn12	0.3 µM and 0.469 µM	1.29 µM and 3.42 µM	0.104 µM and 0.306 µM	0.785 µM and 2.03 µM	0.342 µM and 1.16 µM	1.22 µM and 3.74 µM	0.419 µM and 0.649 µM	1.37 µM and 2.88 µM	0.536 µM and 1.56 µM	2.04 µM and 4.39 µM	0.34 µM and 0.349 µM	1.52 µM and 3.19 µM	0.35 µM and 0.703 µM	2.02 µM and 4.45 µM	0.298	4.41
C=CC(=O)N(C)[C@H]1C[C@H]2OC(C)(C1OC)n1c3ccccc3c3c4c(c5c6ccccc6n2c5c31)C(=O)NC4 (some centres not stated)	0.178 µM	2.7 µM	0.0402 µM	0.266 µM	0.0955 µM	0.318 µM	–	–	0.216 µM	1.39 µM	0.018 µM	0.0854 µM	0.0773 µM	0.899 µM	0.0963	0.92
CCN=C1C=CC(=C(c2ccc(N)cc2)c2ccc(N(CC)CC)c(C)c2)C=C1	0.271 µM	1.2 µM	0.182 µM	0.543 µM	0.255 µM	0.703 µM	0.396 µM	10.7 µM	0.324 µM	1.69 µM	2.03 µM	10.3 µM	0.394 µM	5.12 µM	–	–
N#Cc1c(N/N=C/c2c(Cl)cccc2Cl)nc(N)nc1N1CCOCC1	19.4 µM	> 100 µM	12.4 µM	> 100 µM	20.2 µM	> 100 µM	20.8 µM	92 µM	6.77 µM	> 100 µM	14.5 µM	86.4 µM	4.08 µM	40.6 µM	24.5	> 100
CN1CCN(Cc2ccc(NC(=O)c3cncc(C#Cc4cnc(N)c5ccncc45)c3)cc2C(F)(F)F)CC1	0.212 µM	6.42 µM	0.306 µM	1.93 µM	0.687 µM	> 50 µM	1.56 µM	7.84 µM	0.573 µM	4.68 µM	0.918 µM	2.49 µM	0.328 µM	8.68 µM	–	–
